# Laboratory results taken from patent US6140509A (priority 1999, dated 2000).
# Residue numbers refer to the chain shown, from its start.
# Experiments:
# [1] = system: Adult male Sprague-Dawley rats; assay: Amphetamine-stimulated locomotor activity; type: in vivo
# From the text: A 5HT2A receptor antagonist or inverse agonist is expected to decrease amphetamine-stimulated locomotion without affecting baseline locomotion. See, for example, Soresnon, et al, 266(2) J. Pharmacol. Exp. Ther. 684 (1993). […] For the following study, the following parameters and protocol were utilized:
# Adult male Sprague-Dawley rats were utilized for these studies. Animals were housed in groups of 2-3 in hanging plastic cages with food and water available at all times. Animals were weighed and handled for at least one day prior to surgery and throughout the studies. For these studies, Vehicle consisted of 90% ethanol (100%) and 10% water.
# A San Diego Instruments Flex Field apparatus was used to quantify baseline and amphetamine-stimulated locomotor activity. This apparatus consists of four 16"×16" clear plastic open fields. Photocell arrays (16 in each dimension) interfaced with a personal computer to automatically quantify activity. Several measures of activity can be assessed with the apparatus, including total photocell beam breaks. Animals (vehicle control and Compound treated) were injected s.c. 30 minutes prior to initiation of analysis. Following this 30 minute period, animals were placed individually into an open field and baseline activity was assessed for 30 minutes (habituation phase). […]
# [2] = system: human mutated 5HT2A receptor, AP-3; assay: Receptor-mediated inositol phosphate (IP3) accumulation, AP-3; type: cell-based; settings: statement in words
# [3] = system: 5HT2A receptors (cerebral cortex); assay: I125-LSD displacement from brain sections, cortex (autoradiography); type: binding, Sprague-Dawley rats; settings: 1 micromolar compound, 1 nanomolar I125-LSD, 30 minutes, room temperature
# [4] = target: T1, endogenous human 5-HT2C receptor (Homo sapiens, UniProt P28335)
# T1 sequence (P28335 33-458): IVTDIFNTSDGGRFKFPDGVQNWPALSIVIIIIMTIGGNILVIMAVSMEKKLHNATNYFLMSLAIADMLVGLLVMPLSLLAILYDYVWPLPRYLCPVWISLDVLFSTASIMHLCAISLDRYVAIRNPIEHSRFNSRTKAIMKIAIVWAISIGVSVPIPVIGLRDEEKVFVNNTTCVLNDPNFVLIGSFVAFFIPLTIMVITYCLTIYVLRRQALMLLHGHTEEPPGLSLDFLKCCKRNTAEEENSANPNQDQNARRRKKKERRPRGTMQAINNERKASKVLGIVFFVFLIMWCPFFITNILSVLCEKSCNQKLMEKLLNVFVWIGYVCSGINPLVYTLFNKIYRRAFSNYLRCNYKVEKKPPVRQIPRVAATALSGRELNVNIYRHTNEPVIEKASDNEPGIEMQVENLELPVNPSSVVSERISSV
# [5] = target: T2, constitutively active mutant human 5HT2C receptor AP-1 (Homo sapiens, UniProt P28335, S310K); assay: [35S]GTPγS binding assay, AP-1 membranes; type: biochemical; settings: 30 μM mianserin, 293T cells, Wallac scintistrips
# T2 construct: expressed in transfected cells
# T2 sequence (P28335 33-458 S310K): T1 sequence (P28335 33-458) with S278K
compound,measurement,setting,value
"Cn1cc(Br)c(-c2cccc(NC(=O)c3cccs3)c2)n1 [Compound 116102, N-[3-(4-bromo-1-methylpyrazol-3-yl)phenyl][2-thienyl]carboxamide]",amphetamine-stimulated locomotion (photobeam breaks),"[1]; 116102 s.c. 0.1, 1.0, 5.0 mg/kg, d-amphetamine sulfate 1.0 mg/kg",a decrease in the amphetamine-stimulated locomotion
same,dose-response pattern of locomotor activity,"[1]; 116102 s.c. 0.1-10 mg/kg, FIGS. 17A-C","a general ""inverted U"" shaped pattern was observed"
same,inverse agonist activity at the human 5HT2A receptor,[2],potent inverse agonist
"COc1ccc(OC(=O)Nc2cccc(-c3nn(C)cc3Br)c2)cc1 [Compound 116100, N-[3-(4-bromo-1-methylpyrazol-3-yl)phenyl][4-methoxyphenoxy]carboxamide]",displacement of I125-LSD from cortex (5HT2A),[3],appears to selectively displace the I^125 -LSD from the cortex (5HT2A)
CN1CCN2c3ccccc3Cc3ccccc3C2C1 (centres unmarked) [mianserin],inhibition of serotonin-stimulated [35S]GTPγS binding (FIG. 9),"[4]; 30 μM mianserin, COS cells",completely inhibited
same,inhibition of serotonin-stimulated [35S]GTPγS binding (FIG. 10),[4]; endogenous human 5-HT2C per text,inhibits this response
same,inhibition of basal constitutive [35S]GTPγS binding (FIG. 10),"[4]; no agonist, endogenous human 5-HT2C per text",acts as a partial inverse agonist by inhibiting the basal constitutive binding of [^35 S]GTPγS
same,"inhibition of serotonin-stimulated [35S]GTPγS binding, AP-1 (FIG. 10)",[5],inhibition
